Results taken from patent US7951592B2, “Compositions and methods for inducing cell dedifferentiation” (The Scripps Research Institute, priority 2003, dated 2011).

Experiments:
C2C12 myoblast cells = details: day four of compound treatment
C2C12 myoblasts cells = details: at the effective concentration (0.5-5 μM)
Description: After four days of treatment with reversine, the compound was removed and cells were then grown in osteogenic differentiation medium (ODM) or adipogenic differentiation medium (ADM).

## c1nc2nc(Nc3ccc(N4CCOCC4)cc3)nc(NC3CCCCC3)c2[nH]1 [Compound A, 2-(4-Morpholinoanilino)-6-cyclohexylamino-purine]
C2C12 myoblast cells; 5 μM
  myotube formation: completely inhibited
C2C12 myoblast cells
  myogenic specific markers such as MyoD and myosin: began to disappear
C2C12 myoblasts cells
  cell death: no significant cell death
